Positions of bridges follow the written chain, without caps; N, C: chain ends. No end group written: not given here.
How the values were obtained:
[1] = system: anti-β1-ECII antibodies; experiment: ELISA-competition assay: peptide preincubated with sera/IgG of immunized antibody-positive rats, linear 25AA Cys/Cys-peptide as antigen; type: binding, rat; design: blocking capacity (% of blocked versus non-blocked ELISA-reactivity): concentration or dose not given beside the values; settings: for decrease in circulating free anti-beta1-ECII antibodies: n=6 sera (FIG. 11); for blocking capacity (% of blocked versus non-blocked ELISA-reactivity): IgG from n=78 immunized antibody-positive rats, preincubation 12 h, mutants with D-Glu ring closure (FIG. 7); for blocking capacity (% of blocked versus non-blocked ELISA-reactivity) / blocking-efficiency versus unblocked sera: 4° C.; for blocking capacity (% of blocked versus non-blocked ELISA-reactivity) / blocking efficiency (% of blocked versus non-blocked ELISA reactivity) / blocking capacity (% of blocked versus non-blocked ELISA reactivity): ±SEM; for blocking-efficiency versus unblocked sera: n=6 sera, incubation 12-14 h, mean ±SEM (FIG. 27); for blocking efficiency (% of blocked versus non-blocked ELISA reactivity): type1 sera (93%, n=64 of 69), FIG. 9 upper panel; for blocking capacity (% of blocked versus non-blocked ELISA reactivity): type 2 sera (7%, n=5 of 69), FIG. 9 lower panel
Procedure: FIG. 9 is a diagram composed of two major-(upper and lower) panels resuming the blocking effect of both 25AA- and 18AA-cyclopeptide mutants having a Gln closure site, as well as 18AA cyclopeptide mutants having a D-Glu closure site after preincubation (12 h, 4° C., rotating incubation) with sera isolated from 69 different immunized antibody-positive rats in an ELISA-competition assay using the 3 Cys-containing linear 25AA Cys/Cys-peptide as an antigen. The upper panel depicts rat sera preferentially reacting with the Cys/Ser mutated cyclopeptides (type1 reaction, n=64), separated in cyc25AA(Gln)-peptides (left) and cyc18AA(Gln and D-Glu)-peptides (right). The lower panel depicts the rat sera reacting with both the Cys/Ser and the Ser/Cys mutated cyclopeptides (type2 reaction, n=5), again separated in the results obtained with cyc25AA(Gln)-peptides (left) and cyc18AA(Gln and D-Glu)-peptides (right).
FIG. 11 is a diagram resuming the dose-dependent (x-axis, abscissa: fold molar excess of specific peptides) blocking capacity of various linear and cyclic beta1-ECII-peptides given in % of the unblocked antibody-titer (y-axis, ordinate), including 25AA Cys/Cys linear peptides (black squares), 25AA Cys/Ser cyclopeptide mutants (white squares), 18AA Cys/Cys cyclo-peptides (black diamonds), 18AA Cys/Ser cyclopeptide mutants (white diamonds), and 18AA Cys/Ser linear peptide mutants (vertically hatched diamonds) in an ELISA competition assay performed with sera from n=6 randomly chosen immunized antibody-positive rats.
FIGS. 27A and B depict the in vitro blocking (=neutralization) capacity of various cysteine-containing cyclopeptide variants of the second extracellular loop (ECII) of the human beta1-adrenergic receptor, determined by testing n=6 individual sera (27A) of immunized beta1-ECII-antibody-positive rats after over-night incubation with the indicated cyclopeptides (12-14 h, 4° C.) by ELISA. Columns in 27A represent the receptor-antibody blocking efficiency of the indicated cyclopeptides in % of the antibody-(ELISA-)signals obtained with unblocked antibody-positive rat sera. Columns in 27B represent the mean blocking efficiency for each cyclopeptide, error bars indicate ±SEM.
The blocking capacity of β1-ECII-18AA cyclopeptide mutants (Cys13-Ser14 or Ser13-Cys14 mutation having an additional D-Glu-Gln exchange, e.g. at the ring closure site) was compared with the 3 Cys-containing 25AA or 18AA Cys/Cys cyclopeptides after preincubation (12 h, 4° C., rotating incubation over-night) of different numbers of sera from immunized antibody-positive rats in an ELISA-competition assay using the 3 Cys-containing linear 25AA Cys/Cys-peptide as an antigen. FIGS. 4, 5, and 7-10 show the results from measurements performed with sera of n=12 up to n=82 immunized antibody-positive rats using different cyclopeptides of the present invention.

[2] = system: beta1-receptor antibodies; experiment: in vivo prevention study: five prophylactic peptide applications, serum antibody-titers by ELISA; design: species or system rat; settings: 1.0 mg/kg body weight i.v., 4-weekly, prevention protocol (FIG. 12)
Procedure: FIG. 12 is a diagram resuming the in vivo blocking capacity of in total five (prophylatic) applications of various linear and cyclic beta1-ECII-peptides, started 3 months after the first immunization (and two subsequent beta1-ECII/GST-antigen-boosts, corresponding to a prevention protocol). Serum-titers of the beta1-receptor antibodies were determined before and 18-20 h after each peptide injection (abscissa, time in months) and are given in % of the corresponding antibody-titers of immunized untreated rats (y-axis, ordinate). The injected peptides were: 25AA Cys/Cys linear peptide (black squares), […] (white squares), 18AA Cys/Cys cyclopeptide (black diamond), 18AA Cys/Ser cyclopeptide mutant (white diamonds), and the 18AA Cys/Ser linear peptide mutant (vertically hatched diamonds). […] Black circles indicate antibody-titers of untreated regularly (every 4 weeks) immunized animals serving as reference, set at 100%.
The in-vivo blocking effects of both 25AA and 18AA Cys/Ser mutant cyclopeptides (with a Gln closure site), the 18AA Ser/Cys mutant cyclopeptide, and a mutated linear 18AA Cys/Ser peptide were analyzed after intravenous (i.v.) injection of 1.0 mg/kg body weight (Bw) of each construct into freshly immunized antibody-positive rats (i.e., use of cyclo-peptides in a kind of “prevention” study), with a first cyclopeptide-application 3 months after the initial immunization (and two subsequent boost at months 2 and 3). In total, five prophylactic applications of the various constructs were given at 4-weekly intervals, always two weeks after the monthly continued antigen boost. Sera were drawn 18-20 hours after i.v. injection and assayed for reactivity by ELISA using the 3 Cys-containing linear 25AA Cys/Cys-peptide as an antigen (FIG. 12).

[3] = system: anti-beta1-receptor antibody-titers; experiment: in vivo therapy study in long term immunized cardiomyopathic rats: antibody-titers by ELISA; design: species or system rat
Procedure: FIG. 16A is a diagram resuming the in vivo blocking effect of both 25AA and 18AA cyclopeptide mutants with a Gln closure site, determined after a total of nine intravenous (i.v.) in-jections of 1.0 mg/kg body weight (Bw) of the indicated peptides into immunized antibody-positive rats. Sera were drawn before and 18-20 hours after i.v. injection of the various peptides every 4 weeks (abscissa: time in months of treatment) and assayed for reactivity by ELISA using the 3 Cys-containing linear 25AA Cys/Cys-peptide as an antigen.
FIG. 16B is a diagram resuming the in vivo blocking effect of various concentrations of 18AA cyclopeptide mutants with a Gln closure site, determined after a total of nine intra-venous (i.v.) injections of 0.25, 1.0, 2.0, and 4.0 mg/kg body weight (Bw) into immunized antibody-positive rats, irrespective of the cyclopeptide “responder-state” of individual animals. Sera were drawn before and 18-20 hours after i.v. injection of the various peptides every 4 weeks (abscissa: time in months), and assayed for reactivity by ELISA using the 3 Cys-containing linear 25AA Cys/Cys-peptide as an antigen.
Sera were drawn as described above and assayed for reactivity by ELISA using the 3 Cys-containing linear 25AA Cys/Cys-peptide as an antigen.
Moreover, the in vivo blocking effects of therapeutically used 25AA and 18AA Cys/Ser cyclo-peptide mutants, the 18AA Ser/Cys mutant (Gln-)cyclopeptide, and a mutated linear 18AA Cys/Ser peptide were assessed after a first intravenous (i.v.) dose (i.e., 1.0 mg/kg body weight (Bw)) of each construct injected into long term immunized anti-beta1-ECII antibody-positive rats, yet presenting a cardiomyopathic phenotype (after nine months of 1× monthly immunization with the beta1-ECII/GST antigen; FIGS. 14-16 and 17). Sera were drawn 18-20 hours after the first i.v. injection of the various constructions and assayed for reactivity by ELISA using the 3 Cys-containing linear 25AA Cys/Cys-peptide as an antigen.
The latter doses were almost equally efficient in terms of both, neutralization of circulating receptor antibodies (FIGS. 16b and c), and reversal of antibody-induced cardiomyopathic features (FIGS. 17b, 19b, 20, and 21b).
In order to generate anti-β1-receptor antibodies the animals were immunized with a fusion protein containing bacterial glutathione-S-transferase and the sequence of the second extra-cellular loop of the human β1-adrenergic receptor (GST/β1-ECII). Before treatment of the animals with mutated cyclopeptides according to the present invention, progressive dilated immune cardiomyopathy is observed after 6 to 8 months of regular immunization every four weeks (FIG. 17). All of the immunized animals developed high titers of stimulatory anti-β1-ECII antibodies. The specific anti-β1-ECII titer reached a maximum between 6 and 8 months of continuously boosting the animals every 4 weeks, whereas NaCl-injected control animals developed no specific receptor antibodies (FIG. 18).
Such immunized animals were used for the application of mutant cyclopeptides according to the present invention. The in-vivo blocking effect of both 25AA and 18AA Cys/Ser mutant cyclopeptides (with a Gln closure site) were determined after a first intravenous (i.v.) injection of 1.0 mg/kg body weight (Bw) (for 18AA Cys/Ser cyclopeptides also 0.25 mg/kg/Bw) into immunized antibody-positive rats. Sera were drawn 18-20 hours after i.v. injection of the different peptides and assayed for reactivity by ELISA using the 3 Cys-containing linear 25AA Cys/Cys-peptide as an antigen.

[4] = 20-fold molar excess of peptide
[5] = 80-fold molar excess of peptide

18AA Cys/Cys cyclopeptides: (non-mutated) 3 Cys-containing β1-ECII-homologous 18AA cyclopeptide (cyclo(ADEARRCYNDPKCCDFVQ); not fully specified (bridges); cysteine pairing not given here) [reference compound]
decrease in circulating free anti-beta1-ECII antibodies ([1]; 8-fold molar excess of peptide): 46%
decrease in circulating free anti-beta1-ECII antibodies [1, 4]: 56%
decrease in circulating free anti-beta1-ECII antibodies [1, 5]: 71%
blocking capacity (% of blocked versus non-blocked ELISA-reactivity) [1]: 60±4%
blocking-efficiency versus unblocked sera [1]: 66.1±7.0%
blocking efficiency (% of blocked versus non-blocked ELISA reactivity) [1]: 59±2%
blocking capacity (% of blocked versus non-blocked ELISA reactivity) [1]: 67±6%
antibody-titer decrease after 5 injections, compared with untreated immunized animals [2]: 89.9±3%

ARAESDEARRCYNDPKCCDFVTNRQ (cysteine pairing not given here) [linear 25AA Cys/Cys peptides, reference compound]
decrease in circulating free anti-beta1-ECII antibodies ([1]; 8-fold molar excess of peptide): 24%
decrease in circulating free anti-beta1-ECII antibodies [1, 4]: 35%
decrease in circulating free anti-beta1-ECII antibodies [1, 5]: about 50%
blocking capacity (% of blocked versus non-blocked ELISA-reactivity) [1]: 55±4%
antibody-titer decrease after 5 injections, compared with untreated immunized animals [2]: 25.8±3%

Cyclo-Ala-Arg-Ala-Glu-Ser-Asp-Glu-Ala-Arg-Arg-Cys-Tyr-Asn-Asp-Pro-Lys-Cys-Ser-Asp-Phe-Val-Thr-Asn-Arg-Gln (cyclo(ARAESDEARRCYNDPKCSDFVTNRQ); disulfide 11-17 (inferred)) [25AA Cys/Ser mutant cyclopeptides]
decrease in circulating free anti-beta1-ECII antibodies ([1]; 8-fold molar excess of peptide): 30%
decrease in circulating free anti-beta1-ECII antibodies [1, 4]: 49%
decrease in circulating free anti-beta1-ECII antibodies [1, 5]: 83%
blocking efficiency (% of blocked versus non-blocked ELISA reactivity) [1]: 69±2%
blocking capacity (% of blocked versus non-blocked ELISA reactivity) [1]: 48±6%
initial transient increase in antibody-titers ([3]; 1.0 mg/kg Bw (FIGS. 16a and b)): transient increase in antibody-titers
absolute decrease in antibody-titers after 9 months of treatment, of the titer at start of therapy ([3]; 1.0 mg/kg i.v. every 4 weeks): −37±13%

cyc22AA Cys/Cys: 3 cysteine-containing cyclic 22AA beta1-ECII peptide with a Gly closure site (cyclo(RAESDEARRCYNDPKCCDFVTG); disulfide (positions not given here)) [reference compound]
blocking-efficiency versus unblocked sera [1]: 82.0±5.0%

cyclo(Ala-Asp-Glu-Ala-Arg-Arg-Cys-Tyr-Asn-Asp-Pro-Lys-Ser-Cys-Asp-Phe-Val-Gln) (cyclo(ADEARRCYNDPKSCDFVQ); disulfide 7-14 (inferred)) [18AA Ser/Cys with Gln-]
fraction of rat sera blocked by the peptide ([1]; n=69 sera, (Gln-)cyclopeptide mutants (FIG. 10), Cys/Ser = blocked by it alone (n=64), Ser/Cys = sera blocked by both (n=5)): about 7%
blocking efficiency (% of blocked versus non-blocked ELISA reactivity) [1]: 1±2%
blocking capacity (% of blocked versus non-blocked ELISA reactivity) [1]: 47±3%
in vivo blocking capacity after the first i.v. injection ([3]; 1 mg/kg Bw, sera 18-20 hours after injection (FIGS. 14 and 15)): clearly less efficient

Source: patent US9062095B2, “Mutant double cyclized receptor peptides inhibiting β1-adrenoceptor antibodies” (JULIUS-MAXIMILIANS-UNIVERSTITAT-WURZBURG, priority 2007, dated 2015)
